Experimental data published in ChEMBL document CHEMBL5532636 (Eur J Med Chem, 2023).
Converted amounts (≈) assume the structure as drawn.

Legend:
[1] = molecular target: T1, Xanthine dehydrogenase/oxidase (Homo sapiens, UniProt P47989); test: Inhibition of xanthine oxidase (unknown origin)
[2] = AUC (0 to 360 min) in Sprague-Dawley rat at 224 umol/kg, po; format: ADME; conditions: in vivo, 6 h, dose 224 µmol/kg
[3] = AUC (0 to 360 min) in Sprague-Dawley rat at 37 umol/kg, iv; format: ADME; conditions: in vivo, 6 h, dose 37 µmol/kg
[4] = molecular target: Xanthine dehydrogenase/oxidase (Bos taurus, UniProt P80457); test: Inhibition of bovine milk xanthine oxidase using xanthine as substrate preincubated for 30 mins followed by substrate addition measured for 200 secs by spectrophotometry
Bovine coronavirus = test: (§1) Antiviral activity against B-CoV infected in human HRT-18 cells assessed as inhibition in viral replication at 25 ug/ml preincubated with cell culture for 1 hr and further infected with virus for 1 hr followed by removal of virus particles and subsequent replacement of medium containing compound measured for 96 hrs post-infection by RT-PCR analysis relative to control; format: functional, HRT-18 cell line; conditions: Betacoronavirus 1, HRT-18, time 98 hrs
[5] = Oral bioavailability in monkey; format: ADME, organism-based, Macaca mulatta; conditions: rhesus monkey, in vivo
[6] = molecular target: Replicase polyprotein 1ab (Severe acute respiratory syndrome coronavirus 2) (UniProt P0DTD1); test: Inhibition of SARS-CoV-2 3CLpro at 100 ug/ml preincubated for 30 mins followed by substrate addition measured after 4 hrs by fluorescence assay relative to control; conditions: dose 100.0 µg/ml, time 4.5 hrs
Human coronavirus OC43 = test: as §1, with “HCoV-OC43” for “B-CoV”, “12.5” for “25”; format: functional, HRT-18 cell line; conditions: Betacoronavirus 1, HRT-18, time 97 hrs
[7] = Antioxidant activity assessed as DPPH radical scavenging activity at 25 uM measured after 2 mins by ESR spectroscopy relative to control; format: functional
[8] = Antioxidant activity assessed as DPPH radical scavenging activity at 50 uM measured after 2 mins by ESR spectroscopy relative to control; format: functional
[9] = Cytotoxicity against African green monkey Vero cells; format: toxicity, cell-based; conditions: chlorocebus sabaeus
[10] = Cytotoxicity against human Calu-3 cells incubated for 4 days by MTS assay; format: toxicity, cell-based; conditions: time 4 day
[11] = Aqueous solubility of compound; format: physicochemical; conditions: buffer
[12] = Cytotoxicity against African green monkey Vero cells by CCK8 assay; format: toxicity, cell-based; conditions: chlorocebus sabaeus
[13] = Cytotoxicity against African green monkey Vero cells incubated for 4 days by MTS assay; format: toxicity, cell-based; conditions: chlorocebus sabaeus, time 4 day
[14] = test system: Severe acute respiratory syndrome coronavirus 2; test: Binding affinity to SARS-CoV-2 nsp12 assessed as change in melting temperature preincubated for 20 mins followed by heating by thermal shift assay
[15] = Cmax in Sprague-Dawley rat at 224 umol/kg, po measured for 2160 mins; format: ADME, organism-based; conditions: in vivo, 36 h, dose 224 µmol/kg
[16] = molecular target: Replicase polyprotein 1ab (Severe acute respiratory syndrome coronavirus 2) (UniProt P0DTD1); test: Inhibition of full-length SARS-CoV-2 PLpro expressed in Escherichia coli BL21(DE3) using RLRGG-AMC as substrate at 50 uM preincubated for 10 mins followed by substrate addition measured for 5 mins by FRET assay relative to control; conditions: time 15.0 min
[17] = test system: Severe acute respiratory syndrome coronavirus 2; test: Binding affinity to SARS-CoV-2 nsp5 assessed as change in melting temperature preincubated for 20 mins followed by heating by thermal shift assay
SARS-CoV-2 [18] = test: Inhibition of SARS-CoV-2 pseudovirus entry in human Huh-7 cells at 30 uM preincubated with cell culture for 1 hr followed by pseudovirus infection measured after 48 hrs by luciferase reporter gene assay relative to control; format: functional; conditions: Severe acute respiratory syndrome coronavirus 2, Huh-7, time 49 hrs
[19] = Drug metabolism in Sprague-Dawley rat assessed as circulating drug conjugates by measuring AUC (0 to 360 min) at 37 umol/kg, iv; format: ADME; conditions: in vivo, 6 h, dose 37 µmol/kg
[20] = Inhibition of C-terminal GST-tagged full-length recombinant SARS-CoV 3CLpro expressed in Escherichia coli BL21(DE3) using MCA-AVLQSGFR-Lys(Dnp)-Lys-NH2 as substrate preincubated for 10 mins followed by substrate addition measured for 3.5 mins by FRET assay; parameters: species or system Severe acute respiratory syndrome-related coronavirus
[21] = molecular target: Replicase polyprotein 1ab (Severe acute respiratory syndrome coronavirus 2) (UniProt P0DTD1); test: Binding affinity to SARS-CoV-2 nsp14 assessed as change in melting temperature preincubated for 20 mins followed by heating by thermal shift assay
[22] = Antioxidant activity assessed as DPPH radical scavenging activity at 200 uM measured after 2 mins by ESR spectroscopy relative to control; format: functional
Renin = molecular target: T2, Renin (Homo sapiens, UniProt P00797); test: Inhibition of recombinant human renin using Arg-Glu(EDANS)-lle-His-Pro-Phe-His-Leu-Val-lle-His-Thr-Lys(dabcyl)-Arg as substrate incubated for 5 to 10 mins by fluorescence based assay
T2 sequence (P00797 whole entry): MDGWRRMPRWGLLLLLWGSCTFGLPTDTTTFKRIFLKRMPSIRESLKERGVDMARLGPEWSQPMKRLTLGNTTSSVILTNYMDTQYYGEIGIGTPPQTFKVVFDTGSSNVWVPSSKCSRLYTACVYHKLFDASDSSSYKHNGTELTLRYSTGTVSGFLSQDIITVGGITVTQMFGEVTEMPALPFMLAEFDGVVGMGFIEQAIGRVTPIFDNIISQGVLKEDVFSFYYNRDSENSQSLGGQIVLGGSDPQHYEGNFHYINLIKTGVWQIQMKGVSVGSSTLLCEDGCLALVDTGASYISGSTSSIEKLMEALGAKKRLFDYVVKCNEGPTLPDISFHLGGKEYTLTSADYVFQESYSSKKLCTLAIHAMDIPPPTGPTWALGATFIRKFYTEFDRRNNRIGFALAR

[23] = Cytotoxicity against African green monkey Vero E6 cells assessed as reduction in cell viability incubated for 3 days by MTT assay; format: toxicity, cell-based, Vero C1008; conditions: chlorocebus sabaeus, time 3 day
SARS-CoV-2 [24] = test: Antiviral activity against SARS-CoV-2 TY/WK-521 infected in African green monkey Vero E6 cells assessed as reduction in viral replication preincubated with cell culture for 1 hr and further infected with virus for 2 hrs followed by compound washout and subsequent addition of medium containing compounds measured for 48 hrs post-infection by qRT-PCR analysis; format: functional, organism-based; conditions: Severe acute respiratory syndrome coronavirus 2, TY/WK-521, Vero C1008
Influenza A virus [25] = test: Antiviral activity against Influenza A virus H1N1 FM/1/47 infected in BALB/c mouse assessed as macrophage polarization in BALF at 80 mg/kg/day, po qd for 7 days by flow cytometry (reference value: 95 %); format: functional; conditions: time 7 day
[26] = molecular target: T1, Xanthine dehydrogenase/oxidase; test: Inhibition of xanthine oxidase (unknown origin) using xanthine as substrate preincubated for 30 mins followed by substrate addition by spectrophotometry
[27] = molecular target: Angiotensin-converting enzyme (Homo sapiens, UniProt P12821); test: Inhibition of ACE (unknown origin) using Hippuryo-histidyl-leucine as substrate incubated for 40 mins by absorbance based assay
Influenza A virus [28] = test: Antiviral activity against Influenza A virus H1N1 FM/1/47 infected in BALB/c mouse assessed as decrease in recruitment of M1-polarized CD11b+ and F4/80+ macrophages in BALF at 80 mg/kg/day, po qd for 7 days by flow cytometry relative to control; format: functional; parameters: scale not given: the % may be the effect or the level left; conditions: time 7 day
[29] = Apparent permeability in human Caco-2 cells measured for 30 to 180 mins by HPLC analysis; format: ADME, cell-based; conditions: time 30-180 min
SARS-CoV-2 [30] = test: Antiviral activity against SARS-CoV-2 NCCP 43326 infected in African green monkey Vero cells assessed as reduction in viral infection preincubated with cell culture for 30 mins and further infected with virus measured after 72 hrs by plaque reduction neutralization test method; format: functional, organism-based; conditions: Severe acute respiratory syndrome coronavirus 2, NCCP 43326, Vero
[31] = Inhibition of SARS-CoV-2 nsp15 endonuclease activity using 5'-FAM-dArUdAdAdA-TAMRA-3' as substrate measure for 1 hr by fluorescence based assay; parameters: species or system Severe acute respiratory syndrome coronavirus 2
[32] = Oral bioavailability in rat; format: ADME, organism-based; conditions: in vivo
[33] = molecular target: Angiotensin-converting enzyme 2 (Homo sapiens) (UniProt Q9BYF1); test: Synergistic inhibition of ACE2 in human SAEC cells at 25 uM incubated for 6 days in presence of ascorbic acid by ELISA relative to control; format: cell-based; conditions: time 6.0 day
SARS-CoV-2 [34] = test: Antiviral activity against SARS-CoV-2 infected in African green monkey Vero cells assessed as reduction in viral replication; format: functional, organism-based; conditions: Severe acute respiratory syndrome coronavirus 2, Vero
[35] = molecular target: Angiotensin-converting enzyme 2 (Homo sapiens) (UniProt Q9BYF1); test: Inhibition of ACE2 in human SAEC cells at 25 uM incubated for 6 days by ELISA relative to control; format: cell-based; conditions: time 6.0 day
[36] = Solubility of compound in water; format: physicochemical
[37] = molecular target: Replicase polyprotein 1ab (Severe acute respiratory syndrome coronavirus 2, UniProt P0DTD1); test: Inhibition of SARS-CoV-2 PLpro using Ubiquitin-AMC as substrate by continuous kinetic assay

T1 sequence (P47989 whole entry): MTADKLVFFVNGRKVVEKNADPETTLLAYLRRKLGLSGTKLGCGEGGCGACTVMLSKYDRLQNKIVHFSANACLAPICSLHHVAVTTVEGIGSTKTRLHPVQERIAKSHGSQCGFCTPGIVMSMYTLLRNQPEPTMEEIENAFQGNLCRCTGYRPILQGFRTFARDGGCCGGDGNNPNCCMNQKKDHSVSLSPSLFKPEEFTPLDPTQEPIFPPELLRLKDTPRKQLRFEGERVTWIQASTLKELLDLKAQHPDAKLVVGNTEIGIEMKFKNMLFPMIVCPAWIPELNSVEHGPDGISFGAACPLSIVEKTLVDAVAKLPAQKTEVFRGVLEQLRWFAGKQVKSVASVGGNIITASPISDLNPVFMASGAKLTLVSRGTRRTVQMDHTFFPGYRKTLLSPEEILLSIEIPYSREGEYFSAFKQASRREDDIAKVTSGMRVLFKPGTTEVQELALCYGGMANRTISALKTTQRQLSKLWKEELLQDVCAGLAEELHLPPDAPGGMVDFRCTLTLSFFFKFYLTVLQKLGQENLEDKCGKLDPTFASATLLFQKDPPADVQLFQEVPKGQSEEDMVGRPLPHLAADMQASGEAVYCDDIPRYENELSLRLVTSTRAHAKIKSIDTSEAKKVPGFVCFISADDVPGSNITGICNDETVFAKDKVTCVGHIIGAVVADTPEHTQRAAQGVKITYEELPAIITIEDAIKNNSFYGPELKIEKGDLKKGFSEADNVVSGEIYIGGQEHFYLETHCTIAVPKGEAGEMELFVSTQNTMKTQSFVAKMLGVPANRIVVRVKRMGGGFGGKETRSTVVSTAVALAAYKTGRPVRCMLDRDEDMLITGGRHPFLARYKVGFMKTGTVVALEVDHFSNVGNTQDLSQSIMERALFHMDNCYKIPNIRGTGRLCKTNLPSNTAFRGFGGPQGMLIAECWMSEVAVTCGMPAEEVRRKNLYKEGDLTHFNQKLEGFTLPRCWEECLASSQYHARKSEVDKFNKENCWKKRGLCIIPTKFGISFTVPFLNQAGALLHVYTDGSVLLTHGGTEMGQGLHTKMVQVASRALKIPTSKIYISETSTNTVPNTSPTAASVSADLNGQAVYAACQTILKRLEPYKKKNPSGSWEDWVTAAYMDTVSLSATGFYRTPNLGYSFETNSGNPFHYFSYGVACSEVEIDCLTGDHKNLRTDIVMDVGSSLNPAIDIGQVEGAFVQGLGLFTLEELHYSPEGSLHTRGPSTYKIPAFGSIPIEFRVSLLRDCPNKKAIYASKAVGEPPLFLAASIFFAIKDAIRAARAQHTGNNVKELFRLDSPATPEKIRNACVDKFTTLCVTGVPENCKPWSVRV
Sequence of Angiotensin-converting enzyme 2 (Homo sapiens) (Q9BYF1 18-805 limits assumed): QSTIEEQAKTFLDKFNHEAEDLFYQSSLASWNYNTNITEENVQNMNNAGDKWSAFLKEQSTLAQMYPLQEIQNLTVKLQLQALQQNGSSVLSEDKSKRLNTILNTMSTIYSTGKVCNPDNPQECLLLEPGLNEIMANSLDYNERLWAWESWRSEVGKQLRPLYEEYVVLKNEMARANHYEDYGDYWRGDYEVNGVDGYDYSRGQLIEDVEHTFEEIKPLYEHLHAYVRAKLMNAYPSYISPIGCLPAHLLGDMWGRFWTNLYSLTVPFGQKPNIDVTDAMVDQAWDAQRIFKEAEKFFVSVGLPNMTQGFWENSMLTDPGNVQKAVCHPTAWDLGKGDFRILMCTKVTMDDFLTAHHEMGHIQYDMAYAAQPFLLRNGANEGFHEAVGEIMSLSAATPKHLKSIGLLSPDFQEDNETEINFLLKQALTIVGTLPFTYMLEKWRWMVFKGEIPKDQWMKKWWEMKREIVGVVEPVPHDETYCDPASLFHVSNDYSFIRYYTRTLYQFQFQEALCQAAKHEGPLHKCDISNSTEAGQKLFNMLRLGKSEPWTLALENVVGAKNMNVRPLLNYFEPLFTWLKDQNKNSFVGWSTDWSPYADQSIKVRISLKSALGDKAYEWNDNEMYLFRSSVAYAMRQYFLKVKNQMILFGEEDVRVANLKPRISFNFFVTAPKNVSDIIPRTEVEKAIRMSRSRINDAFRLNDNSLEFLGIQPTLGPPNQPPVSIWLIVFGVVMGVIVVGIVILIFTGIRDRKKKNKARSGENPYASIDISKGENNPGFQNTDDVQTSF
Sequence of Xanthine dehydrogenase/oxidase (Bos taurus, UniProt P80457) (P80457 whole entry): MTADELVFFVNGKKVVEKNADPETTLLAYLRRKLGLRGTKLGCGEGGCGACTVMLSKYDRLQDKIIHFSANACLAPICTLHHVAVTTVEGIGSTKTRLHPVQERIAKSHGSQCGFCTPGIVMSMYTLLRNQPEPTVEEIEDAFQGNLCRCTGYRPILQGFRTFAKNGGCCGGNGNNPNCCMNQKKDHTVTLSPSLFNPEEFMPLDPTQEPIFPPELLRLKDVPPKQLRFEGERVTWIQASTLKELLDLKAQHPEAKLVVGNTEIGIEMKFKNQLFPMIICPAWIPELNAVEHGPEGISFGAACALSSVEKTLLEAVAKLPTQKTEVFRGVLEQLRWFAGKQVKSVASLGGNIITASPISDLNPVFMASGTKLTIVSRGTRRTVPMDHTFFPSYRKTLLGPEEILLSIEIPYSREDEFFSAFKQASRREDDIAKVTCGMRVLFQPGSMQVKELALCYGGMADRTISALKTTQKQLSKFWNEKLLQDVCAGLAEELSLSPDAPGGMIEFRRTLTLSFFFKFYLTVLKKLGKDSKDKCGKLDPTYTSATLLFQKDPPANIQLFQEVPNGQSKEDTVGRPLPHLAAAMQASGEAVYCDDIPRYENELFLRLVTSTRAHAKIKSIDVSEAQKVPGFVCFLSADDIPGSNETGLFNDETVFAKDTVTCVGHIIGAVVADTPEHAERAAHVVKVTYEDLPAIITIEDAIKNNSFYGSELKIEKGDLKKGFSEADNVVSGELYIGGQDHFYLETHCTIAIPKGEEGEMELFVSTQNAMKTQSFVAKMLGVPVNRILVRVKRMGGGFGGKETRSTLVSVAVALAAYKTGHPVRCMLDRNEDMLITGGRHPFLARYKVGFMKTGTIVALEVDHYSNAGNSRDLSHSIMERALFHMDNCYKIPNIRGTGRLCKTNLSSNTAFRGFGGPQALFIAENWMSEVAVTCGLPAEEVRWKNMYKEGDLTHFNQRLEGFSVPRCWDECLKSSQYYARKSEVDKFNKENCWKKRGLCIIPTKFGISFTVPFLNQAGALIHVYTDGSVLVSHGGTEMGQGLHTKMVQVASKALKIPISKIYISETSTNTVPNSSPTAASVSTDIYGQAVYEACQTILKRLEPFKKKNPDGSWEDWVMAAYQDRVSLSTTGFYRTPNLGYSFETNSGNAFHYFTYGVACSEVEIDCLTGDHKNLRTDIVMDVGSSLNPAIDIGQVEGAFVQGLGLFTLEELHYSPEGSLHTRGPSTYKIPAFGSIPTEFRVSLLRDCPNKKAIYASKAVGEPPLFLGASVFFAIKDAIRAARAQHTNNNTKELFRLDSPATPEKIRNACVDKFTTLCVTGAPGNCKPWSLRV
Sequence of Angiotensin-converting enzyme (P12821 whole entry): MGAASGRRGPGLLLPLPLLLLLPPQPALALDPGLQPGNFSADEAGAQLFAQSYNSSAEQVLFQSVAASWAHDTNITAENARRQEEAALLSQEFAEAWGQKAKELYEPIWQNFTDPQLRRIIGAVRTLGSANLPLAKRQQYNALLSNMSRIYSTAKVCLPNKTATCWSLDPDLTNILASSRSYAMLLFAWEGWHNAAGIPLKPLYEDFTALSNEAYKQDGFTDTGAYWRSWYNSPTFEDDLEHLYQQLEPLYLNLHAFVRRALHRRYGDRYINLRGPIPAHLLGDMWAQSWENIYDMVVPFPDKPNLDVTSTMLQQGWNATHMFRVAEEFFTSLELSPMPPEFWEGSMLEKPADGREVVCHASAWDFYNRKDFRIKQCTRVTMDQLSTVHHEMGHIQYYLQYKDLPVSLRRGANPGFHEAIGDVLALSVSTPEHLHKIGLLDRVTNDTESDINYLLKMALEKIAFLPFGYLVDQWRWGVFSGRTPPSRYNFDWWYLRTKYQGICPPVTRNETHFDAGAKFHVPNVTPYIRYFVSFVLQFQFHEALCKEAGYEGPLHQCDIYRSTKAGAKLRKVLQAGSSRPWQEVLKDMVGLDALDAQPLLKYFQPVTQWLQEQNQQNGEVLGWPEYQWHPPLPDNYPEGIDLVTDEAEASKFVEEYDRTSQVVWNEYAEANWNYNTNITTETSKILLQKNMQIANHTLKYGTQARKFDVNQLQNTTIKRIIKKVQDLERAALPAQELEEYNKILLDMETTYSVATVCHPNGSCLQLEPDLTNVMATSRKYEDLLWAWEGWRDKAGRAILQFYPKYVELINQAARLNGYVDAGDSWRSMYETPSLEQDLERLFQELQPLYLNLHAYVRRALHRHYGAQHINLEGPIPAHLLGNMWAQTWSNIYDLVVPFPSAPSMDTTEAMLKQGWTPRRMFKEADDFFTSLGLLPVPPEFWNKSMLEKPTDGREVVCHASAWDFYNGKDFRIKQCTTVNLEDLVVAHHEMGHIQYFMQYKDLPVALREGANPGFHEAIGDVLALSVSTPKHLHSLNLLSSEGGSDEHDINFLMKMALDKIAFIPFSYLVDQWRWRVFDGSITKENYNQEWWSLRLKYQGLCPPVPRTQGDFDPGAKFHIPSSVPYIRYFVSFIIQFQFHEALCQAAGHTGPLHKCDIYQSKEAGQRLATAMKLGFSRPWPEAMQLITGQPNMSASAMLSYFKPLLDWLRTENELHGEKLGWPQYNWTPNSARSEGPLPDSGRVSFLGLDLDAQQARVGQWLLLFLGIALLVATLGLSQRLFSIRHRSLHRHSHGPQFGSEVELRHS

O=c1cc(-c2ccccc2)oc2cc(O)c(O)c(O)c12 [BAICALEIN]
IC50 [1]: 3.12 µM | AUC [2]: 2980.5 nM.min/ml | AUC [3]: 297.6 nM.min/ml | IC50 [4]: 7.54 µM | inhibition at 25 µg/mL (Bovine coronavirus): 89.8% | bioavailability [5]: 13.1% | inhibition [6]: 94.7% | inhibition at 12.5 µg/mL (Human coronavirus OC43): 100% | Activity [7]: 69% | Activity [8]: 55% | CC50 [9]: > 200 µM | CC50 at 96 h [10]: 9.1 µM | solubility [11]: 0.0168 mg/mL (≈ 62.2 µM) | CC50 [12]: > 500 µM | CC50 at 96 h [13]: 8.6 µM | ΔTm [14]: 3.9 °C | Cmax [15]: 13.6 nM/ml | inhibition [16]: < 50% | ΔTm [17]: 0.9 °C | inhibition at 30 µM (SARS-CoV-2 [18]): 14.6% | AUC [19]: 927.2 nM.min/ml | IC50 [20]: 1.18 µM | ΔTm [21]: 1.5 °C | Activity [22]: > 50%

O=C(O)[C@H]1O[C@@H](Oc2cc3oc(-c4ccccc4)cc(=O)c3c(O)c2O)[C@H](O)[C@@H](O)[C@@H]1O [BAICALIN]
IC50 (Renin): 120 µM | IC50 [1]: 157 µM | CC50 at 72 h [23]: > 1000 µM | AUC [2]: 1943.7 nM.min/ml | IC50 [4]: 123 µM | EC50 (SARS-CoV-2 [24]): 8.8 µM | Activity (Influenza A virus [25]): 97% | IC50 [26]: 55.6 µM | IC50 [27]: 2240 µM | Activity [7]: 42% | Activity [8]: 17% | CC50 [9]: > 200 µM | Activity (Influenza A virus [28]): ~90% | CC50 at 96 h [10]: > 100 µM | Papp [29]: 0.37 nm/s | EC50 (SARS-CoV-2 [30]): 83.3 µM | IC50 [31]: 7.98 µM | CC50 at 96 h [13]: > 100 µM | Cmax [15]: 2.9 nM/ml | F [32]: 2.2% | inhibition [33]: 82% | EC50 (SARS-CoV-2 [34]): 10.3 µM | inhibition [35]: 75% | solubility [36]: 0.067 mg/mL (≈ 150 µM)

CC(=O)Nc1ccc(C)c(C(=O)N[C@H](C)c2cccc3ccccc23)c1
IC50 [37]: 1.73 µM
